The molecules below were run against PARP7 (Homo sapiens (Human), UniProt Q7Z3E1) (assay: Enzymatic assay for inhibition of PARP7: TR-FRET displacement of biotinylated Probe A from the TIPARP active site). Conditions: Table A-1.
Type: binding
Outline: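 Compounds were tested as dose-response series, and reactions were incubated a further 30 min at 25° C. TR-FRET was read at 320 nm excitation with 615 and 665 nm emission after a 90 μs delay. The 665/615 ratio gave the TIPARP–Probe A complex, and % inhibition was fitted against concentration.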

Chain of PARP7 (Q7Z3E1 whole entry): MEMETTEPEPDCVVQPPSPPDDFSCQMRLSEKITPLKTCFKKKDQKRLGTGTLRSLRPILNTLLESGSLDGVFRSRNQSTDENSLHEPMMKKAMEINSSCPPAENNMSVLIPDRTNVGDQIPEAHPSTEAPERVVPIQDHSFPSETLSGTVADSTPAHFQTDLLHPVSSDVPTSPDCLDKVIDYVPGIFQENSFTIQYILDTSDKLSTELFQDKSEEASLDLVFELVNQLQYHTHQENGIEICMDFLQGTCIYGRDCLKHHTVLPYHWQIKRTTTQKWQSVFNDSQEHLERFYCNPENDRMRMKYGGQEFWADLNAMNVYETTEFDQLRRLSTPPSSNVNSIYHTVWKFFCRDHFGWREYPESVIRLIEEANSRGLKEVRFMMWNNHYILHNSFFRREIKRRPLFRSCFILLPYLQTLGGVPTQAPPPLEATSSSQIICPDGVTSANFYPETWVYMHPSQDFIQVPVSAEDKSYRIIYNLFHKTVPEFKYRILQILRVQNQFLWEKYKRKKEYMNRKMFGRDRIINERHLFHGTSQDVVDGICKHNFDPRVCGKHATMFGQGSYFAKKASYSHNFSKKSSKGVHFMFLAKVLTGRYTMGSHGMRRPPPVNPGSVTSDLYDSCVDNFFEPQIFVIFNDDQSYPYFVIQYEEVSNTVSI

Question: For N#Cc1ccc(N2CCN(C(=O)N3CC[C@H](OC[C@@H]4CCCN4c4cn[nH]c(=O)c4C(F)(F)F)C3)CC2)nc1 [Example 129B, 6-[4-[(3S)-3-[[(2S)-1-[6-oxo-5-(trifluoromethyl)-1,6-dihydropyridazin-4-yl]pyrrolidin-2-yl]methoxy]pyrrolidine-1-carbonyl]piperazin-1-yl]pyridine-3-carbonitrile], which IC50 is on record?
Answer: < 100 nM

Question: With N#Cc1ccc(N2CCN(CCC(=O)NC[C@@H]3CCCN3c3cn[nH]c(=O)c3C(F)(F)F)CC2)nc1 [Example 134, (S)-3-(4-(5-cyanopyridin-2-yl)piperazin-1-yl)-N-((1-(6-oxo-5-(trifluoromethyl)-1,6-dihydropyridazin-4-yl)pyrrolidin-2-yl)methyl)propanamide] as the molecule, how does the IC50 read?
Answer: ≥ 1000 nM

Question: With C[C@H]1CCN(c2cn[nH]c(=O)c2C(F)(F)F)[C@H]1COc1cccc(C(=O)N2CCN(c3ccc(C#N)cn3)CC2)c1 [Example 459, 6-(4-(3-(((2R,3S)-3-methyl-1-(6-oxo-5-(trifluoromethyl)-1,6-dihydropyridazin-4-yl)pyrrolidin-2-yl)methoxy)benzoyl)piperazin-1-yl)nicotinonitrile] as the molecule, how does the IC50 read?
Answer: 100 to 1000 nM

Question: With N#Cc1ccc(N2CCN(C(=O)c3cccc(OC[C@@H]4C[C@@H](O)CN4c4cn[nH]c(=O)c4C(F)(F)F)c3)CC2)nc1 [Example 52] as the molecule, how does the IC50 read?
Answer: < 100 nM

Question: O=c1[nH]ncc(N2Cc3ccc(OCCO)nc3C2)c1C(F)(F)F [Example 312, 5-(2-(2-Hydroxyethoxy)-5,7-dihydro-6H-pyrrolo[3,4-b]pyridin-6-yl)-4-(trifluoromethyl)pyridazin-3(2H)-one] was tested. Which IC50 did it give?
Answer: 100 to 1000 nM

Question: How did the IC50 turn out when O=C(CCOCCOc1cn[nH]c(=O)c1Cl)N1CCN(c2ncc(Cl)cn2)CC1 [Example 522, 4-Chloro-5-(2-[3-[4-(5-chloropyrimidin-2-yl)piperazin-1-yl]-3-oxopropoxy]ethoxy)-2,3-dihydropyridazin-3-one] was run?
Answer: < 100 nM

Question: For O=C(C[C@H]1CC[C@H](COc2cn[nH]c(=O)c2C(F)(F)F)O1)N1CCN(c2ncc(C(F)(F)F)cn2)CC1 (single isomer, unassigned) [Example 574 Isomer B], which IC50 is on record?
Answer: 100 to 1000 nM

Question: How did the IC50 turn out when O=c1[nH]ncc(N2Cc3ccc(F)cc3C2)c1Cl [Example 59, 4-Chloro-5-(5-fluoro-2,3-dihydro-1H-isoindol-2-yl)-2,3-dihydropyridazin-3-one] was run?
Answer: < 100 nM

Question: With O=C(C[C@H]1CC[C@H](COc2cn[nH]c(=O)c2Cl)O1)N1CCN(c2ncc(Cl)cn2)CC1 (single isomer, unassigned) [Example 566 Isomer B] as the molecule, how does the IC50 read?
Answer: ≥ 1000 nM

Question: With O=c1[nH]ncc(N2Cc3ccccc3C2)c1C(F)(F)F [Example 160, 5-(Isoindolin-2-yl)-4-(trifluoromethyl)pyridazin-3(2H)-one] as the molecule, how does the IC50 read?
Answer: < 100 nM

Question: How did the IC50 turn out when C[C@@H](COC[C@@H]1CCCN1c1cn[nH]c(=O)c1C(F)(F)F)CC(=O)N1CCN(c2ccc(C#N)cn2)CC1 [Example 128A] was run?
Answer: < 100 nM

Question: How did the IC50 turn out when COC[C@H](COCCC(=O)N1CCN(c2ccc(C#N)cn2)CC1)Oc1cn[nH]c(=O)c1C(F)(F)F (single isomer, unassigned) [Example 532 Isomer B] was run?
Answer: 100 to 1000 nM

Question: For O=c1[nH]ncc(N2Cc3cccc(OC4CCNCC4)c3C2)c1C(F)(F)F [Example 170, 5-(4-(Piperidin-4-yloxy)isoindolin-2-yl)-4-(trifluoromethyl)pyridazin-3(2H)-one], which IC50 is on record?
Answer: < 100 nM

Question: With N#Cc1ccc(N2CCN(C(=O)CCNCCOc3cn[nH]c(=O)c3C(F)(F)F)CC2)nc1 [Example 502] as the molecule, how does the IC50 read?
Answer: ≥ 1000 nM

Question: Which IC50 does the source give for CN1CCN(C(=O)CCOC[C@@H]2c3ccccc3CN2c2cn[nH]c(=O)c2C(F)(F)F)CC1 [Example 421, (S)-5-(1-((3-(4-Methylpiperazin-1-yl)-3-oxopropoxy)methyl)isoindolin-2-yl)-4-(trifluoromethyl)pyridazin-3(2H)-one] here?
Answer: 100 to 1000 nM

Question: Which IC50 does the source give for N#Cc1ccc(N2CCN(C(=O)CCOC[C@@H]3C[C@@H](N)CN3c3cn[nH]c(=O)c3C(F)(F)F)CC2)nc1 [Example 486, 6-(4-(3-(((2S,4R)-4-Amino-1-(6-oxo-5-(trifluoromethyl)-1,6-dihydropyridazin-4-yl)pyrrolidin-2-yl)methoxy)propanoyl)piperazin-1-yl)nicotinonitrile] here?
Answer: < 100 nM

Question: Which IC50 does the source give for O=c1[nH]ncc(N2Cc3cccc(OCCN4CCCCC4)c3C2)c1Cl [Example 256, 4-Chloro-5-(4-(2-(piperidin-1-yl)ethoxy)isoindolin-2-yl)pyridazin-3(2H)-one] here?
Answer: ≥ 1000 nM

Question: O=C(c1cccc(OCC2CCCN2c2cn[nH]c(=O)c2C(F)(F)F)c1)N1CCn2c(nnc2C(F)(F)F)C1 (stereo not drawn) [Example 436, 4-(Trifluoromethyl)-5-(2-((3-(3-(trifluoromethyl)-5,6,7,8-tetrahydro-[1,2,4]triazolo[4,3-a]pyrazine-7-carbonyl)phenoxy)methyl)pyrrolidin-1-yl)pyridazin-3(2H)-one] was tested. Which IC50 did it give?
Answer: 100 to 1000 nM

Question: For CC(=O)N1CCC[C@@H]2CN(c3cn[nH]c(=O)c3C(F)(F)F)C[C@@H]21 [Example 142, 5-[(4aR,7aR)-1-acetyl-octahydro-1H-pyrrolo[3,4-b]pyridin-6-yl]-4-(trifluoromethyl)-2,3-dihydropyridazin-3-one], which IC50 is on record?
Answer: ≥ 1000 nM

Question: For CC(=O)N(C)CCOc1cccc2c1CN(c1cn[nH]c(=O)c1C(F)(F)F)C2 [Example 224, N-Methyl-N-(2-((2-(6-oxo-5-(trifluoromethyl)-1,6-dihydropyridazin-4-yl)isoindolin-4-yl)oxy)ethyl)acetamide], which IC50 is on record?
Answer: < 100 nM

Question: CN(C[C@@H]1CCCN1c1cn[nH]c(=O)c1C(F)(F)F)C(=O)CCN1CCN(c2ccc(C#N)cn2)CC1 [Example 138, 3-[4-(5-cyanopyridin-2-yl)piperazin-1-yl]-N-methyl-N-[[(2S)-1-[6-oxo-5-(trifluoromethyl)-1,6-dihydropyridazin-4-yl]pyrrolidin-2-yl]methyl]propanamide] was tested. Which IC50 did it give?
Answer: ≥ 1000 nM

Question: How did the IC50 turn out when N#Cc1ccc(N2CCN(C(=O)C[C@@H]3CCC[C@@H](COc4cn[nH]c(=O)c4C(F)(F)F)O3)CC2)nc1 (single isomer, unassigned) [Example 583 Isomer A] was run?
Answer: < 100 nM

Question: With O=C(C[C@@H]1CC[C@@H](COc2cn[nH]c(=O)c2Cl)O1)N1CCN(c2ncc(Cl)cn2)CC1 (single isomer, unassigned) [Example 566 Isomer A] as the molecule, how does the IC50 read?
Answer: ≥ 1000 nM

Question: Which IC50 does the source give for N#Cc1ccc(N2CCN(C(=O)c3ccnc(OC[C@@H]4CCCN4c4cn[nH]c(=O)c4C(F)(F)F)c3)CC2)nc1 [Example 69, 6-[4-[(2-[[(2S)-1-[6-oxo-5-(trifluoromethyl)-1,6-dihydropyridazin-4-yl]pyrrolidin-2-yl]methoxy]pyridin-4-yl)carbonyl]piperazin-1-yl]pyridine-3-carbonitrile] here?
Answer: < 100 nM

Question: Which IC50 does the source give for O=c1[nH]ncc(N2Cc3cc(F)c(OCCN4CCOCC4)cc3C2)c1C(F)(F)F [Example 19, 5-[5-fluoro-6-[2-(morpholin-4-yl)ethoxy]-2,3-dihydro-1H-isoindol-2-yl]-4-(trifluoromethyl)-2,3-dihydropyridazin-3-one] here?
Answer: < 100 nM

Question: How did the IC50 turn out when C[C@H](CC(=O)N1CCN(c2ccc(C#N)cn2)CC1)OCCNc1cn[nH]c(=O)c1C(F)(F)F [Example 528B] was run?
Answer: < 100 nM

Question: For C[C@@H](COCCC(=O)N1CCN(c2ccc(C#N)cn2)CC1)Nc1cn[nH]c(=O)c1Cl [Example 597, 6-(4-[3-[(2S)-2-[(5-Chloro-6-oxo-1,6-dihydropyridazin-4-yl)amino]propoxy]propanoyl]piperazin-1-yl)pyridine-3-carbonitrile], which IC50 is on record?
Answer: < 100 nM

Question: C[C@H](CSCCC(=O)N1CCN(c2ncc(C(F)(F)F)cn2)CC1)Oc1cn[nH]c(=O)c1C(F)(F)F [Example 621B, (R)-5-((1-((3-Oxo-3-(4-(5-(trifluoromethyl)pyrimidin-2-yl)piperazin-1-yl)propyl)thio)propan-2-yl)oxy)-4-(trifluoromethyl)pyridazin-3(2H)-one] was tested. Which IC50 did it give?
Answer: < 100 nM

Question: With O=c1[nH]ncc(N2Cc3ccc(OCc4ccncc4)nc3C2)c1C(F)(F)F [Example 321, 5-(2-(Pyridin-4-ylmethoxy)-5,7-dihydro-6H-pyrrolo[3,4-b]pyridin-6-yl)-4-(trifluoromethyl)pyridazin-3(2H)-one] as the molecule, how does the IC50 read?
Answer: < 100 nM

Question: With C#CCOC[C@@H]1CCCN1c1cn[nH]c(=O)c1C(F)(F)F [Example 472, (S)-5-(2-((prop-2-yn-1-yloxy)methyl)pyrrolidin-1-yl)-4-(trifluoromethyl)pyridazin-3(2H)-one] as the molecule, how does the IC50 read?
Answer: ≥ 1000 nM

Question: Which IC50 does the source give for CC(=O)NCC1c2ccccc2CN1c1cn[nH]c(=O)c1C(F)(F)F (stereo not drawn) [Example 264, N-((2-(6-Oxo-5-(trifluoromethyl)-1,6-dihydropyridazin-4-yl)isoindolin-1-yl)methyl)acetamide] here?
Answer: ≥ 1000 nM

Question: Which IC50 does the source give for C[C@H](COc1cn[nH]c(=O)c1C(F)(F)F)OCCC(=O)N1CCN(c2ccc(C#N)cn2)CC1 [Example 530D, 6-[4-(3-[[(2R)-1-[[6-Oxo-5-(trifluoromethyl)-1,6-dihydropyridazin-4-yl]oxy]propan-2-yl]oxy]propanoyl)piperazin-1-yl]pyridine-3-carbonitrile] here?
Answer: < 100 nM

Question: For NCCOc1cccc2c1CN(c1cn[nH]c(=O)c1Cl)C2 [Example 163, 5-(4-(2-Aminoethoxy)isoindolin-2-yl)-4-chloropyridazin-3(2H)-one], which IC50 is on record?
Answer: ≥ 1000 nM

Question: Which IC50 does the source give for C[C@@H](OCCC(=O)N1CCN(c2ccc(C#N)cn2)CC1)[C@@H]1CCCN1c1cn[nH]c(=O)c1C(F)(F)F [Example 140A, 6-(4-[3-[(1R)-1-[(2S)-1-[6-oxo-5-(trifluoromethyl)-1,6-dihydropyridazin-4-yl]pyrrolidin-2-yl]ethoxy]propanoyl]piperazin-1-yl)pyridine-3-carbonitrile] here?
Answer: < 100 nM

Question: How did the IC50 turn out when C[C@@H](COCCC(=O)N1CCN(c2ncc(C(F)(F)F)cn2)CC1)N(C)c1cn[nH]c(=O)c1Cl [Example 636, (S)-4-Chloro-5-(methyl(1-(3-oxo-3-(4-(5-(trifluoromethyl)pyrimidin-2-yl)piperazin-1-yl)propoxy)propan-2-yl)amino)pyridazin-3(2H)-one] was run?
Answer: 100 to 1000 nM

Question: With N#Cc1cnc(N2CCN(C(=O)c3cncc(OCC4c5ccccc5CN4c4cn[nH]c(=O)c4C(F)(F)F)c3)CC2)nc1 (stereo not drawn) [Example 379, 2-(4-(5-((2-(6-Oxo-5-(trifluoromethyl)-1,6-dihydropyridazin-4-yl)isoindolin-1-yl)methoxy)nicotinoyl)piperazin-1-yl)pyrimidine-5-carbonitrile] as the molecule, how does the IC50 read?
Answer: < 100 nM

Reference: US10550105B2 (Ribon Therapeutics Inc., priority 2018, dated 2020)
